Counter-ions that a name gives are not always drawn.
The compounds below were run against T1, PDE1A (Homo sapiens, UniProt P54750) (assay: PDE1A dose response, Cyclic Nucleotide Phosphodiesterase Assay Kit from Biomol (colorimetric)). Settings: purified PDE1A enzyme, 100 μM cAMP.
Format: biochemical
In short: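 Purified PDE1A hydrolysed 100 μM cAMP with 5′-nucleotidase in Tris 20 mM pH 7.4 with calmodulin, Ca2+, Mg2+, 45 min at 37° C. Released phosphate read by malachite-green absorbance at 615 nm. Duplicate 8-point 1/3 dilutions from 20 μM, 1% DMSO; 10 μM vardenafil defined 100% inhibition.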

Compound	IC50
CC(C)(C)n1ncc2c(=O)[nH]c(C3CN(/C(=N\C#N)Nc4ccc(F)cc4)C3)nc21 [Example 179, 3-(1-tert-Butyl-4-oxo-4,5-dihydro-1H-pyrazolo[3,4-d]pyrimidin-6-yl)-N′-cyano-N-(4-fluorophenyl)azetidine-1-carboximidamide]	1 to 100 nM
Cc1nn(C2CCCCC2)c2nc(C3CCCN(C(=O)c4ccccc4NS(C)(=O)=O)C3)[nH]c(=O)c12 (centres unmarked) [Example 181, N-{2-[3-(1-Cyclohexyl-3-methyl-4-oxo-4,5-dihydro-1H-pyrazolo[3,4-d]pyrimidin-6-yl)-piperidine-1-carbonyl]phenyl}-methanesulfonamide]	501 to 1000 nM
CC(C)N1CCCC(NC(=O)N2CC(c3nc4c(cnn4C4CCCCC4)c(=O)[nH]3)C2)C1 (centres unmarked) [Example 183, 3-(1-Cyclohexyl-4-oxo-4,5-dihydro-1H-pyrazolo[3,4-d]pyrimidin-6-yl)-azetidine-1-carboxylic acid (1-isopropyl-piperidin-3-yl)-amide]	101 to 500 nM
CC(C)N1CCC(CNC(=O)N2CC(c3nc4c(cnn4C4CCCCC4)c(=O)[nH]3)C2)CC1 [Example 184, 3-(1-Cyclohexyl-4-oxo-4,5-dihydro-1H-pyrazolo[3,4-d]pyrimidin-6-yl)-N-((1-isopropylpiperidin-4-yl)methyl)azetidine-1-carboxamide]	501 to 1000 nM

The remaining lines, values ahead:

IC50	Compound
1000 to 1500 nM	O=c1[nH]c(C2CCCN(Cc3ccccc3)C2)nc2c1cnn2C1CCCCC1 (centres unmarked) [Example 176, 6-(1-Benzylpiperidin-3-yl)-1-cyclohexyl-1H-pyrazolo[3,4-d]pyrimidin-4(5H)-one]
1 to 100 nM	N#C/N=C(/Nc1ccc(F)cc1)N1CC(c2nc3c(cnn3C3CCCCC3)c(=O)[nH]2)C1 [Example 177, N′-Cyano-3-(1-cyclohexyl-4-oxo-4,5-dihydro-1H-pyrazolo[3,4-d]pyrimidin-6-yl)-N-(4-fluorophenyl)azetidine-1-carboximidamide]
1 to 100 nM	N#C/N=C(/NCC1CCCCC1)N1CC(c2nc3c(cnn3C3CCCCC3)c(=O)[nH]2)C1 [Example 178, N′-Cyano-3-(1-cyclohexyl-4-oxo-4,5-dihydro-1H-pyrazolo[3,4-d]pyrimidin-6-yl)-N-(cyclohexylmethyl)azetidine-1-carboximidamide]
101 to 500 nM	O=c1[nH]c(C2CN(/C(=C\[N+](=O)[O-])NCC3CCCCC3)C2)nc2c1cnn2C1CCCCC1 [Example 180, 1-Cyclohexyl-6-(1-(1-(cyclohexylmethylamino)-2-nitrovinyl)azetidin-3-yl)-1H=pyrazolo[3,4-d]pyrimidin-4(5H)-one]
501 to 1000 nM	O=C(NC1CCCNC1)N1CC(c2nc3c(cnn3C3CCCCC3)c(=O)[nH]2)C1 (centres unmarked) [Example 182, 3-(1-Cyclohexyl-4-oxo-4,5-dihydro-1H-pyrazolo[3,4-d]pyrimidin-6-yl)-azetidine-1-carboxylic acid piperidin-3-ylamide trifluoroacetate]

What follows are compounds tested against T1, PDE1A (assay: PDE1A primary screening, cAMP dynamic HTRF kit from Cisbio). Settings: 10 μM, control compounds of the primary screening, 100 nM cAMP.
Format: biochemical
Text: For the primary screening an assay using the cAMP dynamic HTRF® kit from Cisbio (catnr 62AM2PEB) is used. Its principle is based on HTRF® technology (Homogeneous Time-Resolved Fluorescence). The method is a competitive immunoassay between native cAMP and the cAMP labeled with XL665. The tracer binding is visualized by a monoclonal antibody against cAMP, labeled with Cryptate. The specific signal (i.e. energy transfer) is inversely proportional to the concentration of cAMP in the sample (see FIG. 1).
For the enzymatic reaction, a mixture is made of 20 μL with purified PDE1A enzyme, 100 nM cAMP and the compound (10 μM in a final concentration of 1% DMSO) in a black 384-plate. The reaction buffer is Tris 20 mM pH 7.4, 4 μg/mLl calmodulin, 3 mM MgCl2, 1.5 mM CaCl2, 0.2 mg/mL BSA and 0.001% Brij-35®. After an incubation of 30 minutes at room temperature, the reaction is stopped by the addition of 10 μL labelled cAMP-XL665 and 10 μL anti-cAMP-Cryptate. After 1 hour incubation at room temperature, the readout is performed on the Envision (excitation 360 nm; emission donor 615 nm; emission acceptor 665 nm).
PDE1A hydrolyses cAMP into 5′AMP; this low cAMP concentration will result in a high signal. A PDE1A inhibitor will result in a decrease of the signal. […]

inhibition	Compound
0%	CCCCOc1cc(CC2CNC(=O)N2)ccc1OC (centres unmarked) [Ro-20-1724]

Same assay, conditions: control compounds of the primary screening, 100 nM cAMP

inhibition at 10 µM	Compound
~50%	CCCOc1ccccc1-c1nc2nn[nH]c2c(=O)[nH]1 [Zaprinast]

Source: patent publication US20090137549A1, “Novel compounds useful for the treatment of degenerative & inflamatory diseases” (priority 2006, published 2009)
